In US20250134998A1, “T CELLS WITH CELL-SURFACE EXPRESSION OF ADENOSINE DEAMINASE AND USES THEREOF” (The Board of Trustees of the Leland Stanford Junior …, priority 2021, published 2025):

How the values were obtained:
Type in all cases: cell-based, human
[1] = tested on: Nalm6-GD2; experiment: IL-2 and IFNγ ELISA, HA CAR T cells stimulated with Nalm6-GD2 with or without EHNA; details: 10 uM EHNA
Protocol: HA CAR T cells were stimulated with Nalm6-GD2 tumor line in the presence or absence of 10 uM of EHNA inhibitor at day 15 post-activation. IL-2 and IFNγ secretion was assessed using ELISA. One donor shown.
In some further experiments, CAR T cells overexpressing either ADA1-TM or ADA2-TM were activated with Nalm6-GD2 in the presence or absence of 10 uM of adenosine deaminase inhibitor—EHNA. It was observed that both CAR T cells overexpressing either HA-ADA1-TM or HA-ADA2-TM produced more IL-2 and IFNγ as compared to control group and this increase was abrogated in the presence of EHNA (see e.g., FIG. 12D).

[2] = tested on: HA and CD19 CAR T cells; experiment: Cytokine secretion by idiotype-activated CAR T cells with NECA (ELISA); details: plate-bound idiotype, NECA treatment
Protocol: Co-culture Assays: CAR-T cells were cultured with 1 μM of CPI444 (CORVUS BIOPHARMA) for 2 to 24 hours before the duration of co-culture (unless stated otherwise) with tumor cells or plate-bound idiotype at the concentration 1 or 5 μg/ml. To stimulate a2aR, cells were treated with 0.01-0.1 mM of NECA (Torcis). For cytotoxicity assays, approximately 5×10^4 of tumor cells were co-cultured with CAR T cells at indicated ratio in 200 μL CM in 96-well flat bottom plates. Four images per well at 10× zoom were collected at each time point. Tumor cell growth was quantified by measuring total integrated GFP intensity per well using an IncuCyte ZOOM Live-Cell analysis system (Essen Bioscience) every 2-3 hr. GFP signal was normalized to the time 0 signal. Cell culture supernatants were collected at 24 hours, and interleukin-2 (IL-2) and interferon-g concentrations were determined by enzyme-linked immunosorbent assay (Biolegend). Triplicate wells were plated for each condition. […]
To test whether CAR T cells are susceptible to adenosine-mediated suppression, HA and CD19 CAR T cells were activated with plate-bounded idiotype in the presence or absence of the adenosine receptor agonist 5′-(N-ethylcarboxamido) adenosine (NECA), and analyzed the effector cytokine secretion capacity by ELISA (FIG. 6D; FIGS. 7A-7B). […]

[3] = tested on: NF-kB pathway; experiment: NF-κB-GFP activation reporter in HA CAR-T cells
From the text: FIG. 7C illustrates NFkB-GFP activation level 4 hrs after stimulation of HA CAR T cells in the presence or absence of NECA and A2aR competitive inhibitor. Data are mean s.e.m. from triplicate wells.
To test whether CAR T cells are susceptible to adenosine-mediated suppression, HA and CD19 CAR T cells were activated with plate-bounded idiotype in the presence or absence of the adenosine receptor agonist 5′-(N-ethylcarboxamido) adenosine (NECA), and analyzed the effector cytokine secretion capacity by ELISA (FIG. 6D; FIGS. 7A-7B). […] Adenosine-dependent a2aR stimulation led to elevate intracellular 3′,5′-cyclic adenosine monophosphate (cAMP) which in turn inhibited the NF-kB pathway and cell proliferation (FIG. 6A). To evaluate whether adenosine suppression of CAR T cells worked through the same mechanisms, an NF-κB activation reporter was constructed by placing the Green Fluorescence Protein (GFP) gene downstream of NF-κB response elements. HA CAR-T cells were co-transduced with this NF-kB-GFP reporter. Upon activation with plate-bound idiotype, NECA diminished activation of the NF-kB-GFP reporter (FIG. 7C). This inhibitory effect on activation was prevented by addition of the selective A2aR competitive antagonist (iA2aR), confirming A2a receptor (A2aR) involvement in the suppressive effect of NECA on HA CAR-T cells.

[4] = tested on: CD19.BBz CAR T cells; experiment: Suppression assay: IL-2 secretion by CD19 CAR T cells with HA CAR T cells present; details: CD19 CAR T cells pre-incubated with A2aR inhibitor, in the presence of adenosine-producing HA cells
Protocol: Suppression Assay: For assessing IL-2 secretion inhibition 5×10^4 CD19 CAR T cells 5×10^4 Nalm6 tumor cells together with 5×10^4 of HA CAR or Mock T cells were cultured in 300 μL CM in 96-well flat bottom plates for 24 h. Triplicate wells were plated for each condition. Culture supernatants were collected and analyzed for IL-2 by ELISA (BioLegend).
IL-2 secreted by CD19.BBz CAR T cells co-cultured with Nalm6 leukemia cells was measured in the presence or absence of bulk or sorted CD8+HA CAR T cells for 24 hours.
To test this hypothesis that adenosine production was responsible for the suppressive function of exhausted CAR T cells over neighboring cells, whether HA CAR-T cells were able to produce adenosine in an autocrine manner was investigated (FIG. 7D). Next, CD19 CAR T cells that were pre-incubated with A2aR inhibitor were activated in the presence or absence of (CD8) HA CAR T cells.

SMILES: CCCCCC[C@@H]([C@@H](C)O)n1cnc2c(N)ncnc21 (racemic) [EHNA]
- increase in IFNγ by CAR T cells overexpressing HA-ADA1-TM or HA-ADA2-TM [1]: abrogated
- increase in IL-2 by CAR T cells overexpressing HA-ADA1-TM or HA-ADA2-TM [1]: abrogated

SMILES: CCNC(=O)[C@H]1O[C@@H](n2cnc3c(N)ncnc32)[C@H](O)[C@@H]1O [NECA, 5′-(N-ethylcarboxamido) adenosine]
- IFNγ production [2]: reduced
- IL-2 production [2]: reduced
- activation of the NF-kB-GFP reporter ([3]; plate-bound idiotype): diminished

SMILES: Cc1ccc(-c2nc(N)nc3c2nnn3Cc2cccc(CO[C@H]3CCOC3)n2)o1 [iA2aR]
- IL-2 production by CD19 CAR T cells [4]: restored IL-2 production
- inhibitory effect of NECA on NF-kB-GFP reporter activation ([3]; A2aR antagonist added): prevented
